pIC50: −log10 of the molar value. Like-named read-outs stand apart in the source and are kept apart here.
Legend:
[1] = tested on: influenza A virus (IAV) A/Aichi/2/68 (H3N2) on MDCK cells; assay: microbe, parasite or virus in culture; assay type: cell-based, influenza A virus A/Aichi/2/68 (H3N2); conditions: 48 h
[2] = target: whole RNP complex (viral RNPs) of IAV strain A/PR/8/34 (Influenza A virus, UniProt P03428); assay: biochemical
Chain of whole RNP complex (viral RNPs) of IAV strain A/PR/8/34 (P03428 whole entry, looked up, one chain of several): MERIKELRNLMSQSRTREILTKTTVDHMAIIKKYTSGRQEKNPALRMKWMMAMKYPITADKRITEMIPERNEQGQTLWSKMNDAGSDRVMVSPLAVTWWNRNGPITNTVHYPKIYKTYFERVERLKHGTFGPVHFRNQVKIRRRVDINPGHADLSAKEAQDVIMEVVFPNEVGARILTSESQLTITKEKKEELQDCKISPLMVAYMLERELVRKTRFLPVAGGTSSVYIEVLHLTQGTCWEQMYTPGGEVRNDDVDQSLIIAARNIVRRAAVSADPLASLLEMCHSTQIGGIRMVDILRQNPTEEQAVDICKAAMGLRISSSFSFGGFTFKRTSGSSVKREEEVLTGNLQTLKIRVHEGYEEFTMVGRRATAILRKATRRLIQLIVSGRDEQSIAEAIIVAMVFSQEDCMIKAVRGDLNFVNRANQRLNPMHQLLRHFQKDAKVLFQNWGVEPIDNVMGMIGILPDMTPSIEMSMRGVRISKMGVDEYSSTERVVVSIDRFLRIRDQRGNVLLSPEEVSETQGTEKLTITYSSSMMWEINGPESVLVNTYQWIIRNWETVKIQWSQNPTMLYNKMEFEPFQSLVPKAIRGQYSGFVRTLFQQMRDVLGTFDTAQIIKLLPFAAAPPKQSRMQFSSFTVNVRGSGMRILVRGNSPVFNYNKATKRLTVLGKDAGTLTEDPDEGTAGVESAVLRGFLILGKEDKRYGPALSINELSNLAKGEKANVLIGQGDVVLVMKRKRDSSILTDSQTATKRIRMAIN

SMILES	pIC50 ([1]; read-out: CPE IC50)	pIC50 [2]	pIC50 ([1]; read-out: CPE)
COC(=O)CCCCCNc1nc(-c2ccc3n[nH]c(=O)n3c2)ncc1F	4.41	< 4.48	
O=c1[nH]nc2ccc(-c3ncc(F)c(NCCO)n3)cn12			< 4.30
O=c1[nH]nc2ccc(-c3ncc(F)c(NC4CCCCC4)n3)cn12			< 4.30
CC(C)[C@@H](CC(=O)O)Nc1nc(-c2ccc3n[nH]c(=O)n3c2)ncc1F		< 4.48	< 4.30
O=C(N[C@@H]1CCC[C@H](Nc2nc(-c3cccc4n[nH]c(=O)n34)ncc2F)C1)N1CCCC1 [reference compound]			< 4.30
CC(C)[C@H](Nc1nc(-c2ccc3n[nH]c(=O)n3c2)ncc1F)C(=O)O		< 4.48	< 4.30
CNc1nc(-c2ccc3n[nH]c(=O)n3c2)ncc1F		< 4.48	< 4.30
COC(=O)[C@@H](Nc1nc(-c2ccc3n[nH]c(=O)n3c2)ncc1F)C(C)C	4.41		
COC(=O)[C@@H]1CCC[C@H](Nc2nc(-c3ccc4n[nH]c(=O)n4c3)ncc2F)C1		< 4.48	< 4.30
COC(=O)C[C@@H](Nc1nc(-c2ccc3n[nH]c(=O)n3c2)ncc1F)C(C)C			< 4.30
O=C(O)CCCCCNc1nc(-c2ccc3n[nH]c(=O)n3c2)ncc1F	< 4.00	3.83	
CC(C)C(C)Nc1nc(-c2ccc3n[nH]c(=O)n3c2)ncc1F (centres unmarked)		4.14	< 4.30
COC(=O)CC(Nc1nc(-c2ccc3n[nH]c(=O)n3c2)ncc1F)C1CC1 (centres unmarked)			< 4.30
O=C(N[C@@H]1CCC[C@H](Nc2nc(-c3ccc4n[nH]c(=O)n4c3)ncc2F)C1)N1CCCC1	5.04		
CC(C)Nc1nc(-c2ccc3n[nH]c(=O)n3c2)ncc1F		4.35	< 4.30
O=C(O)CC(Nc1nc(-c2ccc3n[nH]c(=O)n3c2)ncc1F)C1CC1 (centres unmarked)		< 4.60	< 4.30
O=c1[nH]nc2ccc(-c3ncc(F)c(NCC4CC4)n3)cn12		< 4.48	< 4.30
O=C(O)[C@@H]1CCC[C@H](Nc2nc(-c3ccc4n[nH]c(=O)n4c3)ncc2F)C1		4.84	< 4.30

From patent publication US20170081324A1 (priority 2015, published 2017)
